Several values for one entry are separate records, joined by “and”; a condition that tells them apart may be missing. Equal entries are not always repeated. Entries after “also recorded” stand apart in the source; their conditions may differ. Where two headings read alike, the source gives them in different places.
Key:
MG63.3 OS cell line [1] = experiment: in vitro 3D BME assay with MG63.3 OS cell line; format: cell-based, human; settings: for activity on 3D BME compared with 2D: MG63.3, 3D BME vs 2D MTT 72 h
Excerpt: (§1) 3D basement membrane extract (BME) assay was developed at the NCI Barkan (D. Barkan et al. 2008; Dalit Barkan and Green 2011; Hen and Barkan 2020). BME is purified from Engelbreth-Holm-Swarm (EHS) tumor, primarily made up of laminin, collagen IV, entactin, and heparin sulfate proteoglycans (Cultrex Reduced Growth Factor Basement Membrane Extract, PathClear n.d.), which allows it to more accurately reflect the 3D extracellular environment in the body.
(§2) Initially >150 selected therapeutic agents were tested on BME based on the likelihood for either a positive effect or a […] negative effect (as negative controls). […] These therapeutic agents were also tested in dose response (as broad as 1 pM-100 μM) for 2D cytotoxicity (MTT) and the IC50 was calculated. Where required, the hits from the initial screen were also further characterized at additional doses <100 nM in order to further determine the relative selectivity compared to the 2D IC50.
(§3) The influence of drug exposure on the metastatic phenotype was assessed in an in vitro assay of ME and escape from dormancy using a 3D BME assay as previously reported, which was adapted for use with OS cells.
(§4) Cultrex® PathClear, Reduced Growth Factor Basement Membrane Extract (BME—Bio-Techne, Minneapolis, MN) was added ([…]) to a 96-well plate and allowed to gel by incubating at 37° C. for ≥30 min. Cells were harvested, washed with DMEM (no glucose, no FBS, Gibco, Grand Island, NY) and centrifuged at 1500 g×5 mins. The media was aspirated and the remaining cell pellet flicked for about 10 s to ensure disaggregation.
(§5) Cells were diluted in assay media containing 2% BME, resuspended vigorously and 150 μL of the cell suspension was added on top of the gelled 3D BME layer. […] Cell numbers were determined in control vehicle (cells in media+0.1% DMSO), or treated wells and were measured on the indicated days by addition of 20 μL/well of MTS reagent (Cell Titer 96 Aqueous One, Promega, Madison, WI), followed by incubation at 37° C. for 2 h and absorbance measurements at 490 nm via plate reader (Molecular Devices, San Jose CA).
(§6) All conditions were conducted in quadruplicate and each experiment was carried out at least 3 separate times. All comparisons were made between treatment and vehicle control at concordant time points. Statistical analyses and non-linear regressions were derived using GraphPad Prism statistical software.

[2] = given alone at 2 mg/day, cited from earlier work
MG63.3 OS cells = experiment: in vitro SISGel assay with highly metastatic MG63.3 OS cells; format: cell-based, human; settings: for lowest dose leading to appreciable inhibition of 3D growth: MG63.3 on SISGel, vs vehicle control, replicates=4; for activity on 3D SISGel compared with 2D: MG63.3, SISGel vs 2D MTT 72 h
Excerpt: SISGel is comprised of porcine small intestine submucosa gel that was originally developed at Oklahoma State U., by R. Hurst (CSO) and M. Ihnat (Consultant) (Bailey-Downs et al. 2014; Hurst et al. 2013, 2015, 2016). Unlike BME which is derived from a tumor-based matrix, SISGel is derived from healthy stroma and provides a suppressive “normal” ECM. […] Conditions have been identified that promoted suppressed ME-type profile (FIG. 2A). […] In addition to SISGel's complementarity to the BME assay, it can also be conducted in a 96-well format, enabling a high-throughput system to model suppressed/dormant cancer cells to further validate the screening results in BME.

K7M2 OS cell line [3] = experiment: 2D growth / cytotoxicity by MTT, K7M2; format: cell-based, mouse; settings: for non-cytotoxic drug exposures in 2D: K7M2, MTT 72 h, 10 pM-100 μM
Method: The number of viable cells present in 2D culture was determined by MTT as previously reported. Briefly, cells were plated in 96-well plates at 2,000 cells/well and incubated at 37° C. for 24 h. […] After 72 h, MTT reagent (20 L/well of a 5 mg/mL stock solution in sterile water; Sigma, St. Louis, MO) was added to each well and the plate was incubated at 37° C. for 2 h. DMSO ([…]) was then added to each well to solubilize the formazan crystals.
(§7) The resulting absorbance was measured at 490 nm via plate reader (Molecular Devices, San Jose, CA). DMSO (0.1%) was used as vehicle control, while 20 μM rapamycin was used as a positive cell-kill control. The experimental conditions were conducted in triplicate and each experiment was repeated three times. Regression lines and IC50's were calculated using a four-parameter variable slope nonlinear fit in GraphPad Prism.

MG63.3 human OS cells = experiment: PuMA (ex vivo Pulmonary Metastasis Assay) with MG63.3; format: cell-based; settings: single agents, two doses: 100 nM and 1 μM (rapamycin 100 nM and 1 pM [sic]; AZD8055 10 and 100 nM), replicates=3-5
Method: FIG. 23A is a schematic illustrating the metastatic progression of GFP-expressing OS cells conducted by injecting single cells via tail vein injection, followed by lung excision and insufflation 15 mins post-injection. The formation of multicellular colonies in the mouse lung microenvironment can be assessed 14-21 days post-injection.
Dissected lungs are then sectioned and grown on sponges.

MG63.3 OS cell line [4] = experiment: 2D growth / cytotoxicity by MTT, MG63.3; settings: for doses exhibiting cytotoxicity on 2D growth: 72 h
Method: The number of viable cells present in 2D culture was determined by MTT as previously reported. Briefly, cells were plated in 96-well plates at 2,000 cells/well and incubated at 37° C. for 24 h. After 24 h, the media was replaced with fresh media containing drugs at the desired concentrations (10 pM-10 μM) and incubated at 37° C. for 72 h. After 72 h, MTT reagent (20 L/well of a 5 mg/mL stock solution in sterile water; Sigma, St. Louis, MO) was added to each well and the plate was incubated at 37° C. for 2 h. DMSO ([…]) was then added to each well to solubilize the formazan crystals.
as §7

K7M2 OS cell line [5] = experiment: in vitro 3D BME assay with K7M2 OS cell line; format: cell-based, mouse
Excerpt: as §1, §2, §3, §4, §5, §6

[6] = MG63.3 on 3D BME, vs vehicle control, replicates=4, read-out: lowest dose leading to appreciable inhibition of 3D growth
[7] = Homo sapiens, MG-63.3, MG63.3 on 3D BME, vs vehicle control, replicates=4, read-out: lowest dose leading to appreciable inhibition of 3D growth

CO[C@H]1C[C@@H]2CC[C@@H](C)[C@@](O)(O2)C(=O)C(=O)N2CCCC[C@H]2C(=O)O[C@H]([C@H](C)C[C@@H]2CC[C@@H](O)[C@H](OC)C2)CC(=O)[C@H](C)/C=C(\C)[C@@H](O)[C@@H](OC)C(=O)[C@H](C)C[C@H](C)/C=C/C=C/C=C/1C [rapamycin]
minimal effective concentration (MG63.3 OS cell line [1]; [6]): 0.0005 µM | whole blood trough concentration mean ([2]; months 4 through 12): 19 ng/mL | whole blood trough concentration range ([2]; months 4 through 12): 14 to 22 ng/mL | whole blood trough concentration mean ([2]; year 3): 16 ng/mL | whole blood trough concentration range ([2]; year 3): 11 to 22 ng/mL | lowest dose leading to appreciable inhibition of 3D growth (MG63.3 OS cells): 1000 pM | doses leading to significant cytotoxicity on 2D growth (K7M2 OS cell line [3]; K7M2, MTT, 72 h, tested 15 nM-100 μM): ≥ 10 PM

CO[C@H]1C[C@@H]2CC[C@@H](C)[C@@](O)(O2)C(=O)C(=O)N2CCCC[C@H]2C(=O)O[C@H]([C@H](C)C[C@@H]2CC[C@@H](OC(=O)C(C)(CO)CO)[C@H](OC)C2)CC(=O)[C@H](C)/C=C(\C)[C@@H](O)[C@@H](OC)C(=O)[C@H](C)C[C@H](C)/C=C/C=C/C=C/1C [temsirolimus]
minimal effective concentration (MG63.3 OS cell line [1]; [7]): 0.001 µM | activity on 3D BME compared with 2D (MG63.3 OS cell line [1]): much stronger activity on 3D BME at significantly lower doses | activity on 3D SISGel compared with 2D (MG63.3 OS cells): much stronger activity on 3D SISGel at significantly lower doses | lowest dose leading to appreciable inhibition of 3D growth (MG63.3 OS cells): 1 pM | inhibition of ME (loss of GFP signal in the lung tissue) (MG63.3 human OS cells): strong inhibition of ME

COc1ccc(-c2ccc3c(N4CCOC[C@@H]4C)nc(N4CCOC[C@@H]4C)nc3n2)cc1CO [AZD8055]
minimal effective concentration (MG63.3 OS cell line [1]; [7]): 0.1 µM | activity on 3D BME compared with 2D (MG63.3 OS cell line [1]): much stronger activity on 3D BME at slightly lower doses | doses exhibiting cytotoxicity on 2D growth (MG63.3 OS cell line [4]; human): > 100 nM | inhibition of ME (loss of GFP signal in the lung tissue) (MG63.3 human OS cells): strong inhibition of ME

CO[C@@]12[C@H](COC(N)=O)C3=C(C(=O)C(C)=C(N)C3=O)N1C[C@@H]1N[C@@H]12 [mitomycin C]
IC50 (MG63.3 OS cell line [1]; MG63.3): 0.05 µM | activity on 3D BME compared with 2D (MG63.3 OS cell line [1]): much stronger activity on 3D BME at significantly lower doses; also recorded: more active in 3D than in 2D | minimal effective concentration (MG63.3 OS cell line [1]; [6]): 0.0125 µM | IC50 (MG63.3 OS cell line [4]; read-out: 2D IC50, MG63.3, MTT 72 h): 1 µM and ~1 µM

CC(C)[C@]12O[C@H]1[C@@H]1O[C@]13[C@]1(O[C@H]1C[C@H]1C4=C(CC[C@@]13C)C(=O)OC4)[C@@H]2O [triptolide]
lowest dose leading to complete inhibition of 3D growth (MG63.3 OS cell line [1]; MG63.3 on 3D BME, vs vehicle control, replicates=4): 1 nM | cytotoxicity on 2D growth (MG63.3 OS cell line [4]): cytotoxicity at all doses tested

COc1cc(Nc2ncc3c(n2)-c2ccc(Cl)cc2C(c2c(F)cccc2OC)=NC3)ccc1C(=O)O [alisertib]
minimal effective concentration (MG63.3 OS cell line [1]; [7]): 0.0125 µM | activity on 3D BME compared with 2D (MG63.3 OS cell line [1]): much stronger activity on 3D BME at significantly lower doses | doses exhibiting cytotoxicity on 2D growth (MG63.3 OS cell line [4]; human): > 25 nM

C=CCNC1=C2C[C@@H](C)C[C@H](OC)[C@H](O)[C@@H](C)/C=C(\C)[C@H](OC(N)=O)[C@@H](OC)/C=C\C=C(/C)C(=O)NC(=CC1=O)C2=O [tanespimycin]
minimal effective concentration (MG63.3 OS cell line [1]; Homo sapiens, MG-63.3, read-out: lowest dose leading to appreciable inhibition of 3D growth): 0.025 µM | doses exhibiting cytotoxicity on 2D growth (MG63.3 OS cell line [4]; MG63.3, MTT, replicates=3): > 25 nM

CO[C@H]1C[C@@H]2CC[C@@H](C)[C@@](O)(O2)C(=O)C(=O)N2CCCC[C@H]2C(=O)O[C@H]([C@H](C)C[C@@H]2CC[C@@H](OP(C)(C)=O)[C@H](OC)C2)CC(=O)[C@H](C)/C=C(\C)[C@@H](O)[C@@H](OC)C(=O)[C@H](C)C[C@H](C)/C=C/C=C/C=C/1C [ridaforolimus]
minimal effective concentration (MG63.3 OS cell line [1]; [7]): 0.001 µM | activity on 3D BME compared with 2D (MG63.3 OS cell line [1]): much stronger activity on 3D BME at significantly lower doses | activity on 3D SISGel compared with 2D (MG63.3 OS cells): much stronger activity on 3D SISGel at significantly lower doses | lowest dose leading to appreciable inhibition of 3D growth (MG63.3 OS cells): 100 pM | doses exhibiting cytotoxicity on 2D growth (MG63.3 OS cell line [4]; human): > 33000 nM | inhibition of ME (loss of GFP signal in the lung tissue) (MG63.3 human OS cells): strong inhibition of ME

O=C(/C=C/c1cccc(S(=O)(=O)Nc2ccccc2)c1)NO [belinostat]
minimal effective concentration (MG63.3 OS cell line [1]; [7]): 0.2 µM | 3D activity and selectivity for ME in a screen of 10 HDAC inhibitors (MG63.3 OS cell line [1]; MG63.3, selectivity = ratio of 3D to 2D % inhibition at the same dose, Class I, Class II, pan-HDAC): 3D activity and selectivity for ME | doses exhibiting cytotoxicity on 2D growth (MG63.3 OS cell line [4]; human): ≥ 80 nM

O=C(Cc1cccc(OC(F)(F)F)c1)Nc1ccc(CCCCc2nnc(NC(=O)Cc3ccccn3)s2)nn1 [telaglenastat]
minimal effective concentration (MG63.3 OS cell line [1]; [7]): 0.001 µM | activity on 3D BME compared with 2D (MG63.3 OS cell line [1]): much stronger activity on 3D BME at significantly lower doses; also recorded: more active in 3D than in 2D | minimal effective concentration (MG63.3 OS cell line [1]; [6]): 0.001 µM | growth in cell number in 3D BME at highest 2D inactive dose (MG63.3 OS cell line [1]; telaglenastat 100 nM, MG63.3): 10% | doses exhibiting cytotoxicity on 2D growth (MG63.3 OS cell line [4]; human): > 100 nM | effect in 2D at the same dose (MG63.3 OS cell line [4]; telaglenastat 100 nM, MG63.3): no statistically significant inhibition; also recorded: inactive

CNC(=O)c1cc(Oc2ccc(NC(=O)Nc3ccc(Cl)c(C(F)(F)F)c3)c(F)c2)ccn1 [regorafenib]
inhibition at 1 µM (MG63.3 OS cell line [1]; Homo sapiens, MG-63.3, 144 h, MG63.3, Day 6 growth by MTS, P<0.005): ~20% | effect on metastatic phenotype / 3D growth in 3D BME (words) (MG63.3 OS cell line [1]; MG63.3, Day 6 MTS, at or below 1 μM): consistently inhibit 3D growth across both cell lines | inhibition in 3D BME at 100 nM (MG63.3 OS cell line [1]; MG63.3, Day 6 growth by MTS): Significant inhibition was not seen | effect on metastatic phenotype / 3D growth in 3D BME (words) (K7M2 OS cell line [5]; K7M2, Day 6 MTS, at or below 1 μM): consistently inhibit 3D growth across both cell lines | inhibition in 3D BME at 100 nM (K7M2 OS cell line [5]; K7M2, Day 6 growth by MTS): Significant inhibition was not seen | inhibition at 1 µM (K7M2 OS cell line [5]; Mus musculus, 144 h, K7M2, Day 6 growth by MTS, P<0.005): ~20% | non-cytotoxic drug exposures in 2D (K7M2 OS cell line [3]): below 1 μM | effect on cell number in 2D monolayer (MG63.3 OS cell line [4]; MG63.3, MTT, exposures up to 1 μM / assessed exposures): no effect on remaining cell number

CN1CCN(CCOc2cc(OC3CCOCC3)c3c(Nc4c(Cl)ccc5c4OCO5)ncnc3c2)CC1 [saracatinib]
non-cytotoxic drug exposures in 2D (K7M2 OS cell line [3]): below 1 μM
